Laboratory results: patent publication US12098147B2, “Compound having novel structure, complex comprising same, anti-cancer pharmaceutical composition, and anti-cancer drug” (ETNOVA THERAPEUTICS CORP., priority 2018, dated 2024)
Like-named read-outs stand apart in the source and are kept apart here.

Columns and labels:
NE-4C = test: CCK-8 cell viability, NE-4C neural stem cell line; assay type: cell-based; conditions: for IC50: serum-free medium, 24 hours, CCK-8, mean ± SD of 2 to 3 experiments, read-out: IC50 NC-4C (Neural stem cell); for toxicity against brain neurons, in words: brain neurons (NE-4C), FIG. 4
Procedure: (§1) CCK-8 (Cell counting kit-8) is analyzed using a highly water-soluble tetrazolium salt-[…]. [2-(2-methoxy-4-nitrophenyl)-3-(4-nitrophenyl)(2,4-disulfophenyl)-2H-tetrazolium, monosodium salt] is reduced under the presence of an electron medium to produces a water-soluble formazan orange dye. The amount of the formazan dye produced by dehydrogenase in a cell is directly proportional to the number of living cells.
(§2) In an experimental method for evaluating the properties of the compounds according to the present disclosure, various cancer cell lines derived from humans and normal cell lines of each tissue derived from humans and mice were used in this experiment. A complete growth medium corresponding to each cell line and having 10% of heat-inactivated FBS added thereto was used to maintain corresponding cells. The maintained cells were suspended in a volume of 200 μl at a density of 1 or 1.5×10^4 cells and planted in each well of a 96 well plate. The cells were attached to a 37° C. and 5% CO2 incubator for more than 14 hours, and we waited for a stable state. The next day, we removed the medium from the well. 100 μl of serum-free medium containing drugs of various concentrations (0 (control), 2.5, 5, 10, 20, 30, 40, 50, 100, 200 μM) was added to each well and the cells was cultured therein. On 22 hours after the incubation, 10 μl of CCK-8 solution was added to each well, followed by incubation for 2 hours. A plate on which the culture was completed was measured in terms of absorbance at 450 nm using a microplate reader.
(§3) Cell Viability Calculation:
(§4) • A: Absorbance value measured in a control well • B: Absorbance value measured in a well containing the drug
(§5) In Table 1 below, each compound was applied to the cells at 0, 2.5, 5, 10, 20, 30, 40, 50, 100, and 200 μM, and the cells was cultured in a medium free of serum for 24 hours. The measured absorbance value was converted to a % value based on a value of 0, such that a IC50 value was calculated. Each experiment was performed 2 to 3 times and a standard deviation value was obtained.

A549 = test: CCK-8 cell viability, A549 lung cancer cell line; assay type: cell-based, human; conditions: serum-free medium, 24 hours, mean ± SD of 2 to 3 experiments
Procedure: (§6) To identify the anticancer effect of the compounds L1, L2, and L3 according to Examples 1 to 3 of the present disclosure, and the complexes L1Pt, L2Pt, and L3Pt according to Examples 4 to 6 of the disclosure, the cell viability analysis of cancer cells using CCK-8 was performed on several cancer cell lines (colorectal cancer cell line (HT-29 cell line), breast cancer cell line (MCF-7 and MDA-MB-231), cervical cancer cell line (HeLa cell line), liver cancer cell line (Huh-7 and HepG2), brain glioma cell line (C6), lung cancer (A549), prostate cancer (PC3), kidney cancer (Caki-2), normal liver cell line (AML-12), embryonic kidney cell line (HEK-293), neural stem cell line (NE-4C) and normal breast epithelial cell line (MCF10a)).
as §1, §2, §3, §4, §5

MDA-MB-231 = test: CCK-8 cell viability, MDA-MB-231 breast cancer cell line; assay type: cell-based, human; conditions: serum-free medium, 24 hours, mean ± SD of 2 to 3 experiments
Procedure: as §6, §1, §2, §3, §4, §5

MCF10a = test: CCK-8 cell viability, MCF10a normal breast epithelial cell line; assay type: cell-based; conditions: for IC50: serum-free medium, 24 hours, CCK-8, mean ± SD of 2 to 3 experiments; for cytotoxicity against breast epithelial cells, in words: breast epithelial cells (MCF10a), FIG. 4
Procedure: as §6, §1, §2, §3, §4, §5

HeLa cell line = test: CCK-8 cell viability, HeLa cervical cancer cell line; assay type: cell-based, human; conditions: serum-free medium, 24 hours, mean ± SD of 2 to 3 experiments
Procedure: as §6, §1, §2, §3, §4, §5

[1] = system: several cancer cell lines; test: CCK-8 cell viability, panel of cancer cell lines compared in words (FIGS. 3a to 3e); assay type: cell-based, human; conditions: for effect on cancer cell lines compared with the rest of the compounds, in words / toxic effect on cancer cell lines compared with cisplatin and BTA, in words: Log IC50 comparison, FIGS. 3a to 3e; for effect on cancer cell lines compared with the rest of the compounds, in words: comparator the rest of the compounds; for toxic effect on cancer cell lines compared with cisplatin and BTA, in words: comparators cisplatin and BTA
Procedure: as §6, §1, §2
Further, FIGS. 3a to 3e show a graph in which a IC50 value which is obtained based on 2 to 3 times executions of the cell viability analysis is converted to a Log IC50 value. […] The comparative reliability values for BTA were expressed as […], ##p<0.01, and ## #p<0.001. A red line represents the value of cisplatin. A blue line represents the value of BTA.

Huh-7 = test: CCK-8 cell viability, Huh-7 liver cancer cell line; assay type: cell-based, human; conditions: 24 hours, mean ± SD of 2 to 3 experiments
Procedure: as §6, §1, §2, §3, §4, §5

AML12 = test: CCK-8 cell viability, AML-12 normal liver cell line; assay type: cell-based; conditions: serum-free medium, 24 hours, CCK-8; mean ± SD of 2 to 3 experiments
Procedure: as §1, §2, §3, §4, §5

HEK-293 = test: CCK-8 cell viability, HEK-293 embryonic kidney cell line; assay type: cell-based; conditions: serum-free medium, 24 hours, mean ± SD of 2 to 3 experiments, read-out: IC50 HEK293 (embryonic kidney)
Procedure: as §6, §1, §2, §3, §4, §5

MCF-7 = test: CCK-8 cell viability, MCF-7 breast cancer cell line; assay type: cell-based, human; conditions: serum-free medium, 24 hours, mean ± SD of 2 to 3 experiments
Procedure: as §6, §1, §2, §3, §4, §5

HT-29 cell line = test: CCK-8 cell viability, HT-29 colorectal cancer cell line; assay type: cell-based, human; conditions: serum-free medium, 24 hours, mean ± SD of 2 to 3 experiments
Procedure: as §6, §1, §2, §3, §4, §5

C6 = test: CCK-8 cell viability, C6 brain glioma cell line; assay type: cell-based, human; conditions: 24 hours, mean ± SD of 2 to 3 experiments
Procedure: as §6, §1, §2, §3, §4, §5

HepG2 = test: CCK-8 cell viability, HepG2 liver cancer cell line; assay type: cell-based, human; conditions: 24 hours, mean ± SD of 2 to 3 experiments
Procedure: as §6, §1, §2, §3, §4, §5

Caki-2 = test: CCK-8 cell viability, Caki-2 kidney cancer cell line; assay type: cell-based, human; conditions: serum-free medium, 24 hours, mean ± SD of 2 to 3 experiments
Procedure: as §6, §1, §2, §3, §4, §5

PC3 = test: CCK-8 cell viability, PC3 prostate cancer cell line; assay type: cell-based, human; conditions: 24 hours, mean ± SD of 2 to 3 experiments
Procedure: as §6, §1, §2, §3, §4, §5

SMILES	IC50 (NE-4C)	IC50 (A549)	IC50 (MDA-MB-231)	IC50 (MCF10a)	IC50 (HeLa cell line)	IC50 (Huh-7; serum-free medium)	IC50 (AML12)	IC50 (HEK-293)	IC50 (MCF-7)	IC50 (HT-29 cell line)	IC50 (C6; serum-free medium)	IC50 (HepG2; serum-free medium)	IC50 (Caki-2)	IC50 (PC3; serum-free medium)	toxicity against brain neurons, in words (NE-4C)	cytotoxicity against breast epithelial cells, in words (MCF10a)	effect on cancer cell lines compared with the rest of the compounds, in words [1]	toxic effect on cancer cell lines compared with cisplatin and BTA, in words [1]	also measured
N.N.[Cl][Pt][Cl] [Cisplatin, cisplatin, reference compound]	9.01 ± 0.28 µM	> 500 µM	181 ± 48.7 µM	96 ± 6.72 µM	26.2 ± 5.61 µM	38.6 ± 18.5 µM	32.1 ± 4.45 µM	65.5 ± 4.06 µM	204 ± 27.3 µM	39.1 ± 0.61 µM	227 ± 34.3 µM	54.2 ± 31.8 µM	> 500 µM	> 500 µM	–	–	–	–	effect on cancer cell lines, in words ([1]; Log IC50, FIGS. 3a to 3e, no comparator): did not have a great effect on lung cancer, prostate cancer, and kidney cancer
NCC(N)C(=O)Nc1ccc(-c2nc3ccccc3s2)cc1 (stereo not drawn) [Example L1, 2,3-diamoniumtrifluoroacetate-N-(4-benzothiazol-2-yl-phenyl)-propionamide]	–	–	–	–	–	–	–	–	–	–	–	–	–	–	greater toxicity than BTA did	weak cytotoxicity	superior effects on breast cancer, liver cancer, brain glioma, lung cancer, prostate cancer, and kidney cancer than the rest of the compounds did	greater toxic effect against cancer cell lines of colorectal cancer, breast cancer, liver cancer, brain glioma, lung cancer, prostate cancer, and kidney cancer than the cisplatin and BTA did	IC50 (NE-4C; Neural stem cell): 36.8 ± 3.66 µM; IC50 (Huh-7; Homo sapiens, Huh-7, serum-free medium): 69.1 ± 5.25 µM; IC50 (C6; Rattus norvegicus, C6, serum-free medium): 77.8 ± 9.73 µM; IC50 (HepG2; Homo sapiens, HepG2, serum-free medium): 5.94 ± 0.501 µM; IC50 (PC3; Homo sapiens, PC-3, serum-free medium): 94.99 ± 0.82 µM
NCC(N)C(=O)Nc1ccc(-c2nc3ccccc3s2)cc1.[Cl][Pt][Cl] (stereo not drawn) [Example L1Pt]	25.7 ± 1.66 µM	167 ± 11.2 µM	80.8 ± 10.5 µM	46.9 ± 5.14 µM	64.75 ± 0.31 µM	69.4 ± 1.24 µM	139.1 ± 0.85 µM	54.9 ± 2.83 µM	59 ± 11.1 µM	42.6 ± 5.61 µM	93.3 ± 22.7 µM	7.49 ± 0.159 µM	106 ± 8.54 µM	55.7 ± 7.47 µM	greater toxicity than BTA did	weak cytotoxicity	superior effects on breast cancer, liver cancer, brain glioma, lung cancer, prostate cancer, and kidney cancer than the rest of the compounds did	greater toxic effect against cancer cell lines of colorectal cancer, breast cancer, liver cancer, brain glioma, lung cancer, prostate cancer, and kidney cancer than the cisplatin and BTA did	–
